Data on five compounds can be found in PMC6514996, “Discovery of Potent and Selective Halogen-Substituted Imidazole-Thiosemicarbazides for Inhibition of Toxoplasma gondii Growth In Vitro via Structure-Based Design” (Molecules, 2019).

≈ marks a conversion by molar mass, not a printed value.

Data set [1] can be described thus: Cytotoxicity against L929 cells, MTT cell viability assay (ISO 10993-5:2009(E)). In kind it is cell-based. The conditions noted are these: mouse, L929 mouse fibroblast cells; for viability at 24 h, 5 µg/mL / viability at 24 h, 25 µg/mL / viability at 24 h, 50 µg/mL / viability at 24 h, 125 µg/mL / viability at 24 h, 250 µg/mL / viability at 24 h, 500 µg/mL / viability at 24 h, 1000 µg/mL: read-out: viability of L929 cells (% of viable cells); for CC50 at 24 h: 50% cell proliferation inhibition, L929 cells. The source says: Since T. gondii is an obligate intracellular parasite that requires invasion of mammalian host cells to proliferate, compounds that inhibit parasite growth might be toxic to host cells as well. Therefore, as an initial indicator for host cell toxicity, we firstly evaluated compounds 5–16 for their ability to inhibit the growth of mouse fibroblast (L929) cells line according to the international standards: ISO 10993-5:2009(E).
To calculate the reduction of viability compared to the untreated blank the equation was used: viability (%) = 100% × sample OD570 (the mean value of the measured optical density of the treated cells)/blank OD570 (the mean value of the measured optical density of the untreated cells). CC50—represents the concentration of tested compounds that was required for a 50% cell proliferation inhibition in vitro. The effect of the tested compounds on the cell lines was measured using MTT assay according to the international standard: ISO 10993-5:2009(E). CC50 values were determined based on the plotted curves using GraphPad Prism program (version 8.0.1).
Cell culture: the L929 mouse fibroblast (ATTC® CCL-1™) was routinely cultured in IMDM (Iscove’s Modified Dulbecco Medium, Biowest, Nuaille, France), supplemented with 10% HIFBS, 100 U/mL penicillin and 100 μg/mL streptomycin. Cells were trypsinized twice a week and seeded at a density of 1 × 10^6 per T25 cell culture flask and incubated for 24–48 h in a 37 °C and 10% CO2 to achieve a confluent monolayer.
Cell viability assay: Assays were performed according to international standards: ISO 10993-5:2009(E), Biological evaluation of medical devices, Part 5: Tests for in vitro cytotoxicity. Cell viability were evaluated using the tetrazolium salt [3-(4,5-dimethylthiazol-2-yl)-2,5-diphenyltetrazolium bromide] (Sigma) and mouse fibroblasts L929 cells. For this assay we used only the culture medium, RPMI 1640, without phenol red (Biowest) supplemented with 10% HIFBS, 2 mM L-glutamine (Sigma), 100 U/mL penicillin, 100 μg/mL streptomycin. Shortly after, a 1 × 10^4/well of L929 cells were placed into 96-well plates and incubated in 37 °C and 10% CO2. Afterwards, an old culture medium was replaced by 100 μL of compounds and drugs dilutions in culture medium and the cells were treated for 24 h. Moreover, cells were treated with a 4.0–0.03% concentration of DMSO and 1M NaOH as a compound and drugs solvent (data not shown). Then, 50 μL of 1 mg/mL of MTT solution in RPMI 1640 without phenol red was added to each well and incubated 2h (37 °C, 10% CO2). Next, cell culture medium was aspirated cautiously and 150 μL of DMSO was added to each well, the plates were gently mixed. Then 25 μL 0.1M glycine buffer (pH = 10.5) (Sigma) was added. The optical density at 570 nm on the ELISA reader (Multiskan EX, Labsystems, Vienna, VA, USA), was read. The results were expressed as a percentage of viability compared to untreated cells. All experiments were performed in triplicate. For comparison reasons, two compounds known from our previous studies (6 and 9) were included in the bioassay performed for compounds 5, 7, 8, 9–16.
(In general: Formazan colour is commonly taken as a measure of viable cells.)

Data set [2] deals with Toxoplasma gondii RH strain tachyzoites (ATCC PRA 310). As to the kind of experiment: Influence on T. gondii proliferation in Hs27 cells, [3H]-uracil incorporation assay. In kind it is cell-based. The conditions noted are these: for IC50: Toxoplasma gondii, HS27, 50% inhibition of T. gondii RH proliferation in vitro, Hs27 host cells, [3H]-uracil incorporation; for SR (selectivity ratio): ratio of CC50 (L929) to IC50 (T. gondii).

Data set [3] in a line: Lipophilicity by HPLC (logkw extrapolation, OECD guideline). In kind it is physicochemical. The settings on record: Phenomenex Synergi 4 µm Polar-RP column, methanol:water, calibration with seven standards. As for the experimental part:
HPLC experiments were performed using a chromatograph equipped with an Elite LaChrom L-2130 gradient pump, L-2455 DAD detector, L-2300 column oven, and L-2200 autosampler (Hitachi-Merck, Darmstadt, Germany). The tested samples were applied into the Phenomenex Synergi 4 µm Polar-RP chromatographic column (Phenomenex, Torrance, CA, USA) (150 mm length, 4.6 mm i.d.). Mobile phases were degassed using a built-in membrane degasser.
Chromatographic analysis: 5 µL of each sample (0.1% methanolic solutions) was applied into the chromatographic column and chromatograms were developed at a flow rate of 1.0 mL min^−1 in the isocratic mode using various concentrations of methanol in the binary polar mobile phase: methanol:water (40:60, 45:55, 50:50, 55:45, 60:40, 65:35, and 70:30 (v/v)) Chromatograms were detected at 254 nm. All experiments were repeated in triplicate, and the final results were their arithmetic mean. Dead time was measured for uracil (Calbiochem—Merck, Darmstadt, Germany). All the experiments were performed at ambient temperature.
The chromatographic lipophilicity parameter (logkw) for 5–16 was obtained by the extrapolation of the retention parameter logk to pure water, according to the equation: logk = logkw − S × φ(1) where logkw is the value of the retention factor of a substance in pure water, S is the slope of the regression curve, and φ is the concentration (v/v) of methanol in the mobile phase.
Subsequently, logPHPLC parameters for 5–16 were calculated according to OECD guidelines, based on the equation obtained for seven standards with known lipohilicity parameters (logPo/w): logPo/w = 1.0239(± 0.03)·logkw − 0.1541(± 0.08); n = 7; r = 0.9976; se = 0.08; F = 1047.8(2)

Data set [4] concerns Toxoplasma gondii tachyzoites. Also on record: method as in PMID 30744161. The conditions noted are these: inhibition of T. gondii tachyzoite proliferation, previous study; ref [19]; cited from earlier work.

Compound `Cc1nc[nH]c1C(=O)NNC(=S)Nc1ccccc1Cl` [Compound 8, 4-(2-Chlorophenyl)-1-(4-methylimidazol-5-oyl)thiosemicarbazide] showed a melting point of 217 to 219 °C. In data set [1], the viability at 24 h, 5 µg/mL worked out at 89.9%; the viability at 24 h, 25 µg/mL came out at 86.3%; the viability at 24 h, 50 µg/mL amounted to 78.5%; the viability at 24 h, 125 µg/mL is 69.4%. For the same compound, in data set [1], the viability at 24 h, 250 µg/mL is 64.8%; the viability at 24 h, 500 µg/mL is 57.1%; the viability at 24 h, 1000 µg/mL came out at 39.5%; the CC50 at 24 h came out at 630 µg/mL (≈ 2030 µM). In addition, in data set [2], the IC50 is 35.6 µg/mL (≈ 115 µM) and the “SR (selectivity ratio)” value is 17.69. Moreover, in data set [3], the chromatographic logP is 3.17.
As to `Cc1nc[nH]c1C(=O)NNC(=S)Nc1ccccc1Br` [Compound 11, 4-(2-Bromophenyl)-1-(4-methylimidazol-5-oyl)thiosemicarbazide], the melting point lay within 205 to 207 °C. Also, in data set [1], the viability at 24 h, 5 µg/mL was found to be 94.7%; the viability at 24 h, 25 µg/mL was found to be 93%; the viability at 24 h, 50 µg/mL turned out to be 87.5%; the viability at 24 h, 125 µg/mL came to 76.3%. In data set [1], the viability at 24 h, 250 µg/mL was determined as 70%; the viability at 24 h, 500 µg/mL was 47.1%; the viability at 24 h, 1000 µg/mL worked out at 29.8%; it took 495 µg/mL (≈ 1400 µM) to reach half-maximal cytotoxicity (CC50 at 24 h). In data set [2], the IC50 amounted to 27.6 µg/mL (≈ 78.1 µM) and the “SR (selectivity ratio)” value is 17.91. Moreover, in data set [3], the chromatographic logP is 3.23.
The compound `Cc1nc[nH]c1C(=O)NNC(=S)Nc1cccc(I)c1` [Compound 15, 4-(3-Iodophenyl)-1-(4-methylimidazol-5-oyl)thiosemicarbazide] had a melting point of 210 to 212 °C. In addition, in data set [1], the viability at 24 h, 5 µg/mL worked out at 96.7%; the viability at 24 h, 25 µg/mL came out at 87.3%; the viability at 24 h, 50 µg/mL turned out to be 70.8%; the viability at 24 h, 125 µg/mL was 66.2%. In addition, in data set [1], the viability at 24 h, 250 µg/mL was determined as 54%; the viability at 24 h, 500 µg/mL turned out to be 8.53%; the viability at 24 h, 1000 µg/mL turned out to be 8.49%; it took 197 µg/mL (≈ 492 µM) to reach half-maximal cytotoxicity (CC50 at 24 h). In addition, in data set [2], it took 10.3 µg/mL (≈ 25.7 µM) to reach half-maximal inhibition (IC50) and the “SR (selectivity ratio)” value was 19.16. For the same compound, in data set [3], the chromatographic logP is 3.98.
In the case of `Cc1nc[nH]c1C(=O)NNC(=S)Nc1ccc(I)cc1` [Compound 16, 4-(4-Iodophenyl)-1-(4-methylimidazol-5-oyl)thiosemicarbazide], the melting point lay within 225 to 227 °C. Moreover, in data set [1], the viability at 24 h, 5 µg/mL is 96.7%; the viability at 24 h, 25 µg/mL is 84.4%; the viability at 24 h, 50 µg/mL stood at 66.2%; the viability at 24 h, 125 µg/mL was 68.1%. For the same compound, in data set [1], the viability at 24 h, 250 µg/mL was determined as 49.9%; the viability at 24 h, 500 µg/mL came out at 16.3%; the viability at 24 h, 1000 µg/mL turned out to be 13.5%; the midpoint of cytotoxicity, the CC50 at 24 h, lay at 195 µg/mL (≈ 486 µM). Also, in data set [2], 22 µg/mL (≈ 54.9 µM) corresponded to half-maximal inhibition (IC50) and the “SR (selectivity ratio)” value was determined as 8.86. In data set [3], the chromatographic logP was 3.95.
Turning to `Nc1ccc(S(=O)(=O)Nc2ncccn2)cc1` [sulfadiazine, 4-amino-N-(2-pyrimidinyl)benzenesulfonamide, reference compound], the CC50 at 24 h in data set [1] was above 2500 µg/mL. For the same compound, in data set [2], the IC50 is above 2500 µg/mL and the “SR (selectivity ratio)” value is below 0.92. Further, the IC50 in data set [4] is given as ~ 2721.45 µg/mL.

What is called viability is a read-out of living cells in per cent, often relative to untreated cells. Usually CC50 stands for the concentration at which the toxic effect on the cells reaches its halfway point. A high value points to better tolerance by the cells. As usually defined, the IC50 is the concentration that inhibits the measured activity by half. For orientation: chromatographic logP means lipophilicity estimated from chromatographic retention. The melting point is the temperature, or range, at which the solid turns liquid.
